In PubChem BioAssay (NCI):
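Method: 48-hour compound exposure of cells in 96-well plates, five concentrations, linear interpolation of endpoints. Here, GI50 denotes the concentration required for 50% inhibition of growth. At the TGI there is no net growth.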

Columns and labels:
Assay in all cases: NCI tumour cell line growth inhibition, 48 h
[1] = test system: P388 leukemia
[2] = test system: A549 NSCLC
[3] = test system: XF 498 CNS
[4] = test system: A498 renal
[5] = test system: K-562 leukemia
[6] = test system: LOX IMVI melanoma
[7] = test system: UACC-62 melanoma
[8] = test system: NCI-H23 lung
[9] = test system: COLO 205 colon
[10] = test system: NCI/ADR-RES ovarian
[11] = test system: IGROV1 ovarian
[12] = test system: HOP-62 NSCLC
[13] = test system: KM20L2 colon
[14] = test system: SK-OV-3 ovarian
[15] = test system: OVCAR-3 ovarian
[16] = test system: SF-295 CNS
[17] = test system: MALME-3M melanoma
[18] = test system: HOP-92 NSCLC
[19] = test system: CCRF-CEM leukemia
[20] = test system: SNB-75 CNS
[21] = test system: HCT-15 colon
[22] = test system: DLD-1 colon
[23] = test system: SNB-78 CNS
[24] = test system: M19-MEL melanoma
[25] = test system: HCC-2998 colon
[26] = test system: KM12 colon
[27] = test system: RPMI-8226 leukemia
[28] = test system: SK-MEL-28 melanoma
[29] = test system: MOLT-4 leukemia
[30] = test system: NCI-H460 lung
[31] = test system: MCF7 breast
[32] = test system: P388/ADR leukemia
[33] = test system: UO-31 renal
[34] = test system: SN12K1 renal
[35] = test system: EKVX NSCLC
[36] = test system: HT29 colon
[37] = test system: HCT-116 colon
[38] = test system: U251 CNS
[39] = test system: NCI-H522 lung
[40] = test system: DMS 114 small cell lung
[41] = test system: CAKI-1 renal
[42] = test system: SNB-19 CNS
[43] = test system: HL-60(TB) leukemia
[44] = test system: SK-MEL-2 melanoma
[45] = test system: UACC-257 melanoma
[46] = test system: SF-268 CNS
[47] = test system: SF-539 CNS
[48] = test system: OVCAR-8 ovarian
[49] = test system: DMS 273 small cell lung
[50] = test system: HOP-18 NSCLC
[51] = test system: RXF 393 renal
[52] = test system: SN12C renal
[53] = test system: SK-MEL-5 melanoma
[54] = test system: OVCAR-4 ovarian
[55] = test system: SW-620 colon
[56] = test system: OVCAR-5 ovarian
[57] = test system: NCI-H226 lung

C=C1C(=O)OCC2C(C(=O)O)=CC3C(C)C(C)=CC123 (centres undefined) was tested, and the TGI [1] was 12.7 µM, the TGI [2] was 77.1 µM and the TGI [3] was 24.8 µM. The TGI [4] was 18.2 µM, the TGI [5] was 72.4 µM and the TGI [6] was 27.9 µM. It also gave a TGI [7] of 11.8 µM, a TGI [8] of 25.7 µM and a TGI [9] of 32.9 µM. The TGI [10] was 27.3 µM, the TGI [11] was 36.1 µM and the TGI [12] was 31.4 µM. For the same compound, the TGI [13] was 51.1 µM, the TGI [14] was 79.5 µM and the TGI [15] was 31.3 µM. For the same compound, the TGI [16] was 49.1 µM, the TGI [17] was 17.6 µM and the TGI [18] was 25.5 µM. The TGI [19] was 42 µM, the TGI [20] was 44.1 µM and the TGI [21] was 43.8 µM. The TGI [22] was 45.7 µM, the TGI [23] was 117 µM and the TGI [24] was 54.6 µM. For the same compound, the TGI [25] was 29 µM, the TGI [26] was 31.2 µM and the TGI [27] was 26.8 µM. It also gave a TGI [28] of 7.64 µM, a TGI [29] of 29.6 µM and a TGI [30] of 29.2 µM. The TGI [31] was 23.9 µM, the TGI [32] was 21.9 µM and the TGI [33] was 39.5 µM. It also gave a TGI [34] of 29.6 µM, a TGI [35] of 62.6 µM and a TGI [36] of 44.4 µM. It also gave a TGI [37] of 35.5 µM, a TGI [38] of 38.6 µM and a TGI [39] of 8.18 µM. It also gave a TGI [40] of 33.8 µM, a TGI [41] of 62.6 µM and a TGI [42] of 40.2 µM. The TGI [43] was 26 µM, the TGI [44] was 15.1 µM and the TGI [45] was 46 µM. For the same compound, the TGI [46] was 32.8 µM, the TGI [47] was 23.9 µM and the TGI [48] was 73.5 µM. For the same compound, the TGI [49] was 59.6 µM, the TGI [50] was 34.2 µM and the TGI [51] was 17.7 µM. For the same compound, the TGI [52] was 23.6 µM, the TGI [53] was 27.3 µM and the TGI [54] was 20.6 µM. The TGI [55] was 40.9 µM, the TGI [56] was 66.3 µM and the TGI [57] was 52.1 µM.
Compound O=[Se](=O)c1ccccc1.O=[Se](=O)c1ccccc1.[Cu] has a GI50 [1] of 5.23 µM, a TGI [1] of 29 µM and a GI50 [2] of 26 µM. For the same compound, the TGI [2] was 52.2 µM, the GI50 [3] was 15.5 µM and the TGI [3] was 28.9 µM. The GI50 [4] was 20.1 µM, the TGI [4] was 38 µM and the GI50 [5] was 13.4 µM. For the same compound, the TGI [5] was 47.4 µM, the GI50 [6] was 7.65 µM and the TGI [6] was 19.5 µM. The GI50 [7] was 6.82 µM, the TGI [7] was 18.9 µM and the GI50 [8] was 13.5 µM. For the same compound, the TGI [8] was 30.1 µM, the GI50 [9] was 18.5 µM and the TGI [9] was 35.4 µM. The GI50 [10] was 10.5 µM, the TGI [10] was 30 µM and the GI50 [11] was 18.5 µM. For the same compound, the TGI [11] was 37.3 µM, the GI50 [12] was 26 µM and the TGI [12] was 43.4 µM. It also gave a GI50 [13] of 18.3 µM, a TGI [13] of 35.1 µM and a GI50 [14] of 27.3 µM. For the same compound, the TGI [14] was 42.1 µM, the GI50 [15] was 13.7 µM and the TGI [15] was 32.7 µM. For the same compound, the GI50 [16] was 16 µM, the TGI [16] was 29.8 µM and the GI50 [17] was 16.8 µM. It also gave a TGI [17] of 31.7 µM, a GI50 [18] of 21.4 µM and a TGI [18] of 37.3 µM. The GI50 [19] was 7.98 µM, the TGI [19] was 62.7 µM and the GI50 [20] was 22 µM. It also gave a TGI [20] of 37.6 µM, a GI50 [21] of 16.4 µM and a TGI [21] of 34.1 µM. It also gave a GI50 [22] of 18.9 µM, a TGI [22] of 40.5 µM and a GI50 [23] of 12.4 µM. The TGI [23] was 17.1 µM, the GI50 [24] was 5.95 µM and the TGI [24] was 15.2 µM. For the same compound, the GI50 [25] was 16.6 µM, the TGI [25] was 32.9 µM and the GI50 [26] was 9.38 µM. For the same compound, the TGI [26] was 24.6 µM, the GI50 [27] was 17 µM and the TGI [27] was 63.1 µM. For the same compound, the GI50 [28] was 16.6 µM, the TGI [28] was 30.7 µM and the GI50 [29] was 12 µM. For the same compound, the TGI [29] was 65.8 µM, the GI50 [30] was 8 µM and the TGI [30] was 20 µM. The GI50 [31] was 24.1 µM, the TGI [31] was 62 µM and the GI50 [32] was 3.99 µM. The TGI [32] was 24.4 µM, the GI50 [33] was 18 µM and the TGI [33] was 32.5 µM. The GI50 [34] was 7.41 µM, the TGI [34] was 17.6 µM and the GI50 [36] was 17.2 µM. It also gave a TGI [36] of 39.2 µM, a GI50 [37] of 17.4 µM and a TGI [37] of 33 µM. It also gave a GI50 [38] of 17.1 µM, a TGI [38] of 30.9 µM and a GI50 [39] of 17.3 µM. For the same compound, the TGI [39] was 31.5 µM, the GI50 [40] was 6.77 µM and the TGI [40] was 14.9 µM. The GI50 [41] was 22.8 µM, the TGI [41] was 38.9 µM and the GI50 [42] was 17.4 µM. For the same compound, the TGI [42] was 31.3 µM, the GI50 [43] was 6.51 µM and the TGI [43] was 15.4 µM. The GI50 [44] was 18.8 µM, the TGI [44] was 33.5 µM and the GI50 [45] was 16 µM. It also gave a TGI [45] of 30.4 µM, a GI50 [46] of 17.8 µM and a TGI [46] of 33.1 µM. It also gave a GI50 [47] of 16.4 µM, a TGI [47] of 30.6 µM and a GI50 [48] of 15.9 µM. For the same compound, the TGI [48] was 30.2 µM, the GI50 [49] was 20.4 µM and the TGI [49] was 38.3 µM. It also gave a GI50 [50] of 23.4 µM, a TGI [50] of 41.1 µM and a GI50 [51] of 15.3 µM. The TGI [51] was 29.2 µM, the GI50 [52] was 15.8 µM and the TGI [52] was 29.5 µM. It also gave a GI50 [53] of 19 µM, a TGI [53] of 34.9 µM and a GI50 [54] of 18.7 µM. The TGI [54] was 34.5 µM, the GI50 [55] was 17.5 µM and the TGI [55] was 33.8 µM. The GI50 [56] was 23 µM, the TGI [56] was 37.9 µM and the GI50 [57] was 21.7 µM. The TGI [57] was 39.6 µM.
